How the values were obtained:
[1] = system: Plasmodium falciparum W2 clone; assay: FIC index with chloroquine (isobologram analysis) in W2 clone; format: cell-based; design: key: 1.0 = additive; <1.0 = synergy; >1.0 = antagonism; details: 1:1 combination of drug and chloroquine; chloroquine-resistant W2 clone
Procedure: In brief, the assay is based on the incorporation of radiolabeled hypoxanthine by the parasites and inhibition of isotope incorporation is attributed to activity of known or candidate antimalarial drugs. For each assay, proven antimalarials, such as chloroquine, mefloquine, quinine, artemisinin, pyrimethamine and sulfadoxine, were used as controls. The incubation period was 66 hours and the starting parasitemia was 0.2% with a 1% hematocrit. […] Albumax may be used instead of 10% normal heat inactivated human plasma.
(§1) 25 μl of each diluted candidate compound was then transferred to test plates, 200 μl of parasitized erythrocytes (0.2% parasitemia and 1% hematocrit) were added, and incubated at 37° C. in a controlled environment of 5% CO2, 5% O2 and 90% N2. After 42 hours, 25 μl of ^3H-hypoxanthine was added and the plates were incubated for an additional 24 hours. At the end of the 66 hour incubation period, the plates were frozen at −70° C. to lyse the red cells and later thawed and harvested onto glass fiber filter mats by using a 96-well cell harvester. The filter mats were then counted in a scintillation counter and the data was analyzed.
(§2) The FIC is the actual IC50 of one compound in the presence of a second compound but is expressed as a fraction of its IC50 when used alone. This index is a mathematical representation of the isobologram such that an FIC index of 1.0 represents the line of additive on the isobologram. An FIC index of less than 1.0 represents synergy or potentiation and an FIC index of greater than 1.0 represents antagonism.
In the isobologram graphs as shown in FIGS. 1-3, the x-axis is fractional inhibitory concentration (FIC) of chloroquine and the y-axis is FIC of chemosensitizing agent. The FIC is the actual IC50 of one drug in the presence of the second drug but is expressed as a fraction of its IC50 when used alone. If the isobologram graph is a straight line, it represents an additive effect of the two drugs. If the graph forms a concave curve below the line, it indicates synergy or potentiation of the combination. Below the line means synergy or potentiation and above the line means antagonism.

[2] = system: TM91C235; assay: FIC index in TM91C235 isolate; format: cell-based, Plasmodium falciparum; design: key: 1.0 = additive; <1.0 = synergy; >1.0 = antagonism; details: isolate from Southeast Asia (Thailand); same method as for W-2
Procedure: as §2, with “Fifty percent inhibitory concentrations (IC50s) were determined for each candidate compound alone and for candidate compounds in fixed combinations of their respective IC50s (1:1, 1:3, 3:1). […] The” for “The”
The same assay method described above for W-2 was used except that the strains used were isolated from Thailand, Brazil, and Peru, respectively.

[3] = system: RCS; assay: FIC index in RCS isolate; format: cell-based, Plasmodium falciparum; design: key: 1.0 = additive; <1.0 synergy; >1.0 antagonism; details: isolate from Brazil; same method as for W-2
Procedure: (§3) Fifty percent inhibitory concentrations (IC50s) were determined for each candidate compound alone and for candidate compounds in fixed combinations of their respective IC50s (1:1, 1:3, 3:1). […] See Elion, G. V., et al. (1954) J Biol Chem 208:477-488, which is herein incorporated by reference. The FIC is the actual IC50 of one compound in the presence of a second compound but is expressed as a fraction of its IC50 when used alone. This index is a mathematical representation of the isobologram such that an FIC index of 1.0 represents the line of additive on the isobologram. An FIC index of less than 1.0 represents synergy or potentiation and an FIC index of greater than 1.0 represents antagonism.
(§4) Parasites from different regions responded differently to the compounds of the present invention. The same assay method described above for W-2 was used except that the strains used were isolated from Thailand, Brazil, and Peru, respectively.

[4] = system: Peruvian PC49; assay: FIC index in Peruvian PC49 isolate; format: cell-based, Plasmodium falciparum; design: key: 1.0 = additive; <1.0 synergy; >1.0 antagonism; details: isolate from South America (Peru); same method as for W-2
Procedure: as §3, §4

[5] = system: TM91C235 cells; assay: In vitro reversal activity (cell growth suppression, 3H-hypoxanthine incorporation) in TM91C235 cells; format: cell-based, Plasmodium falciparum; details: for Control % sup: test compounds only; for restoring the drug sensitivity of the mefloquine resistant cell line: coadministration with mefloquine
Text: For quantitative in vitro drug susceptibility testing, two well characterized P. falciparum clones, W2 and D6, were used. See Oduola et al. (1988) Exp Parasitol 66:86-95, which is herein incorporated by reference. W2 is a clone of the Indochina I isolate and is resistant to chloroquine and pyrimethamine, but susceptible to mefloquine. D6 is a clone from the Sierra I/UNC isolate and is susceptible to chloroquine and pyrimethamine, but has reduced susceptibilities to mefloquine and halofantrine. TM91C235 was isolates from Thailand and is highly resistant to mefloquine, chloroquine, and quinine.
The in vitro antimalarial drug susceptibility assay used is a modification of the procedures first published by Desjardins, et al. with modifications developed by Milhous, et al. See Desjardins, R. E., et al. (1979) Antimicrobial Agents Chemother 16:710-718; and Milhous, et al. (1985) Antimicrobial Agents Chemother 27:525-530, which are herein incorporated by reference. In brief, the assay is based on the incorporation of radiolabeled hypoxanthine by the parasites and inhibition of isotope incorporation is attributed to activity of known or candidate antimalarial drugs. For each assay, proven antimalarials, such as chloroquine, mefloquine, quinine, artemisinin, pyrimethamine and sulfadoxine, were used as controls. The incubation period was 66 hours and the starting parasitemia was 0.2% with a 1% hematocrit. The media used was RPMI-1640 culture media with no folate or p-aminobenzoic acid (PABA). Albumax may be used instead of 10% normal heat inactivated human plasma.
If a candidate compound was tested without any prior knowledge of its activity or solubility, the compound was dissolved directly in dimethylsulfoxide (DMSO) and diluted 400 fold with complete culture media. These unknown compounds were normally started at a highest concentration of about 50,000 ng/ml. The compounds were then diluted 2-fold, 11 times, to give a concentration range of about 1,048-fold. These dilutions were performed automatically by a Biomek 1000 or 2000 Liquid Handling System into 96-well microtiter plates.
as §1
Each of these test compounds were tested under three different concentrations, 5000, 500, and 50 ng/ml, in the presence of 10 ng/ml of chloroquine and 5 ng/ml of mefloquine. […] Thus, the compounds of the present invention may be used to treat, prevent or inhibit drug resistant malaria.

[6] = test compound 50 ng/ml combined with 5 ng/ml mefloquine
[7] = test compound 50 ng/ml combined with 10 ng/ml chloroquine
[8] = test compound 500 ng/ml combined with 5 ng/ml mefloquine
[9] = test compound 500 ng/ml combined with 10 ng/ml chloroquine
[10] = test compound 5000 ng/ml combined with 5 ng/ml mefloquine
[11] = test compound 5000 ng/ml combined with 10 ng/ml chloroquine

For c1ccc2c(c1)CCc1ccccc1N2CCCCCCN1CCCC1 [7x, 5-(6-Pyrrolidin-1-yl-hexyl)iminodibenzyl], the “FIC (fractional inhibitory concentration) index” value [1] was 0.57, the “FIC index TM91C235” value [2] was 0.54 and the “FIC index RCS” value [3] was 0.60. The “FIC index Peruvian PC49” value [4] was 0.92.
For CN(C)CCCCN1c2ccccc2Sc2ccccc21 [7a, 10-(4-Dimethylaminobutyl)phenothiazine], the “Mefloquine % SUP” value [5, 6] was 2%, the Chloroquine % sup [5, 7] was 30% and the “Mefloquine % SUP” value [5, 8] was 31%. The Chloroquine % sup [5, 9] was 97%, the “Mefloquine % SUP” value [5, 10] was 92% and the Chloroquine % sup [5, 11] was 100%. The Control % sup ([5]; 50 ng/ml) was 17%, the Control % sup ([5]; 500 ng/ml) was 27% and the Control % sup ([5]; 5000 ng/ml) was 92%. For the same compound, the “FIC (fractional inhibitory concentration) index” value [1] was 0.23, the “FIC index TM91C235” value [2] was 0.28 and the “FIC index RCS” value [3] was 0.51.
With c1ccc2c(c1)Sc1ccccc1N2CCCCN1CCCCC1 [7f, 10-(4-Piperidin-1-yl-butyl)phenothiazine] the “FIC (fractional inhibitory concentration) index” value [1] was 0.49, the “FIC index TM91C235” value [2] was 0.52 and the “FIC index RCS” value [3] was 0.68. The “FIC index Peruvian PC49” value [4] was 0.83.
With OC(c1cc(C(F)(F)F)nc2c(C(F)(F)F)cccc12)C1CCCCN1 (stereo not shown) [mefloquine, reference compound] the “cell growth inhibition of TM91C235 cells by drug alone” value ([5]; 5 ng/ml of mefloquine alone) was “did not inhibit the cell growth”.
In the case of c1ccc2c(c1)CCc1ccccc1N2CCCCN1CCOCC1 [7o, 5-(4-Morpholin-4-yl-butyl)iminodibenzyl], the “FIC (fractional inhibitory concentration) index” value [1] is reported as 0.31, the “FIC index TM91C235” value [2] is reported as 0.54 and the “FIC index RCS” value [3] is reported as 0.89. The “FIC index Peruvian PC49” value [4] was 0.78.
In the case of Cc1ccc(CNCCCCN2c3ccccc3CCc3ccccc32)cc1 [7k, 5-(4-Methylbenzylaminobutyl)iminodibenzyl], the “Mefloquine % SUP” value [5, 6] is reported as 20%, the Chloroquine % sup [5, 7] is reported as 10% and the “Mefloquine % SUP” value [5, 8] is reported as 22%. The Chloroquine % sup [5, 9] was 20%, the “Mefloquine % SUP” value [5, 10] was 41% and the Chloroquine % sup [5, 11] was 33%. The Control % sup ([5]; 50 ng/ml) was 30%, the Control % sup ([5]; 500 ng/ml) was 32% and the Control % sup ([5]; 5000 ng/ml) was 60%.
In the case of Cc1ccc(CNCCCCN2c3ccccc3Sc3ccccc32)cc1 [7c, 10-(4-Methylbenzylaminobutyl)phenothiazine], the “restoring the drug sensitivity of the mefloquine resistant cell line” value [5] is reported as “not very active”, the “Mefloquine % SUP” value [5, 6] is reported as 0% and the Chloroquine % sup [5, 7] is reported as 14%. For the same compound, the “Mefloquine % SUP” value [5, 8] was 0%, the Chloroquine % sup [5, 9] was 27% and the “Mefloquine % SUP” value [5, 10] was 13%. It also gave a Chloroquine % sup [5, 11] of 62%, a Control % sup ([5]; 50 ng/ml) of 13% and a Control % sup ([5]; 500 ng/ml) of 18%. For the same compound, the Control % sup ([5]; 5000 ng/ml) was 35%.
In the case of CN1CCN(CCCCN2c3ccccc3CCc3ccccc32)CC1 [7p, 5-[4-(4-Methyl-piperazin-1-yl)-butyl]iminodibenzyl], the “FIC (fractional inhibitory concentration) index” value [1] is reported as 0.52, the “FIC index TM91C235” value [2] is reported as 0.54 and the “FIC index RCS” value [3] is reported as 0.66.
c1ccc(CN(CCCCN2c3ccccc3CCc3ccccc32)Cc2ccccc2)cc1 [7l, 5-(4-Dibenzylaminobutyl)iminodibenzyl] was tested, and the “Mefloquine % SUP” value [5, 6] was 14%, the Chloroquine % sup [5, 7] was 6% and the “Mefloquine % SUP” value [5, 8] was 22%. For the same compound, the Chloroquine % sup [5, 9] was 8%, the “Mefloquine % SUP” value [5, 10] was 19% and the Chloroquine % sup [5, 11] was 13%. The Control % sup ([5]; 50 ng/ml) was 11%, the Control % sup ([5]; 500 ng/ml) was 17% and the Control % sup ([5]; 5000 ng/ml) was 13%.
c1ccc(CN(CCCCN2c3ccccc3Sc3ccccc32)Cc2ccccc2)cc1 [7d, 10-(4-Dibenzylaminobutyl)phenothiazine] was tested, and the “restoring the drug sensitivity of the mefloquine resistant cell line” value [5] was “not very active”, the “Mefloquine % SUP” value [5, 6] was 0% and the Chloroquine % sup [5, 7] was 12%. For the same compound, the “Mefloquine % SUP” value [5, 8] was 3%, the Chloroquine % sup [5, 9] was 16% and the “Mefloquine % SUP” value [5, 10] was 9%. The Chloroquine % sup [5, 11] was 25%, the Control % sup ([5]; 50 ng/ml) was 7% and the Control % sup ([5]; 500 ng/ml) was 10%. The Control % sup ([5]; 5000 ng/ml) was 22%.
CCN(CC)CCCC(C)Nc1ccnc2cc(Cl)ccc12 (stereo not shown) [chloroquine] was tested, and the “cell growth inhibition of TM91C235 cells by drug alone” value ([5]; 10 ng/ml of chloroquine alone) was “did not inhibit the cell growth”.
In the case of CCN(CC)CCCCCCN1c2ccccc2CCc2ccccc21 [7w, 5-(6-Diethylaminohexyl)iminodibenzyl], the “FIC (fractional inhibitory concentration) index” value [1] is reported as 0.48, the “FIC index TM91C235” value [2] is reported as 0.59 and the “FIC index RCS” value [3] is reported as 0.72.
CCN(CC)CCCCN(c1ccccc1)c1ccccc1 [7s, N,N-Diethyl-N′,N′-diphenyl-butane-1,4-diamine] was tested, and the “FIC (fractional inhibitory concentration) index” value [1] was 0.48, the “FIC index TM91C235” value [2] was 0.3 and the “FIC index RCS” value [3] was 0.33.
In the case of c1ccc(N(CCCCN2CCCC2)c2ccccc2)cc1 [7t, Diphenyl-(4-pyrrolidin-1-yl-butyl)amine], the “FIC (fractional inhibitory concentration) index” value [1] is reported as 0.45, the “FIC index TM91C235” value [2] is reported as 0.32 and the “FIC index RCS” value [3] is reported as 0.37.

— patent US6800618B2, “Chemosensitizing agents against chloroquine resistant plasmodium falciparum and methods of making and using thereof” (The United States of America as represented by the …, priority 2001, dated 2004)
